Source: patent US8153784B2, “Imaging of enzyme activity” (The General Hospital Corporation, priority 2004, dated 2012)

Tests used:
human neutrophil MPO = molecular target: T1, human neutrophil MPO (Homo sapiens, UniProt P05164); experiment: MPO-mediated polymerization of DOTA(Gd) substrates: T1/T2 relaxivity change; type: biochemical; settings: for maximum ratio of relaxivity increase between MPO-converted product and substrate: longitudinal and transverse, 1300-1400 U of enzyme activity
T1 construct: purchased BioDesign Inc
Description: Reactions with HRP and MPO were carried out at room temperature in the presence of 0.5-1 mM substrate dissolved in 0.5 ml PBS containing H2O2 (2 mM). Reaction was initiated by adding an aliquot containing the enzyme (either HRP or MPO) and vortexing. After at least a 30 min incubation period T1 was measured using inversion-recovery pulse sequence Bruker Minispec (Buker Analytics, North Bellirica Mass.) at 0.47 T (20 MHz). Size-exclusion HPLC of reaction products was performed on TSK G3000SWXL macroporous column (Supelco) eluted with 0.1 M triethylammonium acetate, pH 7.0 at 1 ml/min.
Standard 96-well plates were prepared and imaged on a 1.5 T whole body clinical General Electric Signa MRI scanner utilizing a standard 3 inch surface coil. Inversion recovery sequences were used to measure T1 relaxation and spin echo sequences were utilized to measure T2 relaxation. T2 weighted images were obtained with TR=5000 ms and TE=100 ms with a fast spin echo sequence. T1 weighted images were obtained with spin echo sequences with the following parameters: TR=100, 200, 350, or 500, TE=11. For the Matrigel™ experiments, a relatively T2 weighted image was obtained at TR=300 ms and TE=200 ms. Single-exponential models were used to obtain T1 and T2. The relaxivities were computed by normalizing relaxation rates to the concentration of gadolinium in each sample, obtained by inductive coupled plasma (ICP) analysis performed by Galbraith Laboratories.
To determine the effect of myeloperoxidase on the substrates, we performed T1 and T2 relaxivity measurements in aqueous solutions, with and without MPO and hydrogen peroxide, at 0.47 T and 1.5 T (the results are summarized in FIGS. 3A and 3B for tyramide-DOTA(Gd) and FIGS. 4A and 4B for 5-HT-DOTA(Gd)). For reference, the two substrates were also reacted with HRP (solid symbols in FIGS. 3A and 3B and FIGS. 4A and 4B).

endogenous mouse MPO = molecular target: T2, endogenous mouse MPO (Mus musculus, UniProt P11247); experiment: LPS induced myositis, MR imaging at 4.7 T; type: in vivo; settings: mice with LPS induced myositis
T2 construct: endogenous in cells; host or cells: inflammatory cells recruited by LPS in C57BL6 male mice (Matrigel site in the thigh, or flank muscle myositis)
T2 sequence (P11247 139-718): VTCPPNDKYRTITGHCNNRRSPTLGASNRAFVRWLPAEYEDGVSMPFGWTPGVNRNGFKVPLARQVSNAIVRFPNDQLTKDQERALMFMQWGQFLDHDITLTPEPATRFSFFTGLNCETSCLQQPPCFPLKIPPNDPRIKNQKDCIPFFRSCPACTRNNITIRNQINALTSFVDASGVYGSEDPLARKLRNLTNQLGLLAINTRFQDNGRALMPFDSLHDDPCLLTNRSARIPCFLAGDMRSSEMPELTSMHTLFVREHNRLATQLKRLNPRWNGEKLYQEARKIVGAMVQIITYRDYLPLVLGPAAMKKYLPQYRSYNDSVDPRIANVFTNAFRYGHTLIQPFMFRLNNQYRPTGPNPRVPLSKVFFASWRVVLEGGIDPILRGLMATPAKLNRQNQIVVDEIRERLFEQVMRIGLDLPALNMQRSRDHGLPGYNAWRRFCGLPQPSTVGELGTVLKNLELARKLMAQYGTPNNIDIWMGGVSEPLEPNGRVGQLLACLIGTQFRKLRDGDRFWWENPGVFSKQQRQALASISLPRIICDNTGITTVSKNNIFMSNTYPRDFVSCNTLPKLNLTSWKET
Description: The MR imaging experiments were performed on a 1.5 T GE Excite scanner and a 4.7 T Bruker Pharmascan scanner. For all MR imaging experiments, precontrast T2-(TR=2000, TE=100, ETL=8, NEX=4, fast spin echo sequence) and T1-weighted images (TR=500, TE=11, NEX=4, spin echo sequence) with fat saturation were initially performed to locate the gels or area of inflammation. The substrates (0.3 mmol/kg) were subsequently injected via the tail vein of the mouse. The mouse was immediately imaged after the injection of the contrast agent using multiple T1-weighted sequences with fat saturation for at least 3 hours.
Ten-week old C57BL6 male mice were obtained from Jackson Laboratories. A total of 22 mice were used for the study. • 1. MPO/Matrigel imaging experiments: Matrigel™ (Beckton-Dickinson), a […] basement membrane matrix gel was used to immobilize human MPO and glucose oxidase (to supply H2O2 required for detecting MPO oxidative activity, Calbiochem). This was chosen to reflect deposits of human MPO in inflamed tissue in a mouse model. 400 μL of a mixture of Matrigel™ and MEM (Cambrex) was injected slowly into the thighs of each mouse one hour prior to imaging. The right thigh mixture also contained 15 U of MPO and 4 U of glucose oxidase (Calbiochem), while the left thigh mixture contained no enzyme and thus serves as an internal control. […]

maximum ratio of relaxivity increase between MPO-converted product and substrate (human neutrophil MPO; 0.47 T): 1.9-2 times
maximum ratio of relaxivity increase between MPO-converted product and substrate (human neutrophil MPO; 1.5 T): 1.6-1.7 times
T1 shortening relative to that by HRP (human neutrophil MPO; 10 μL of MPO (1.6 mg/ml) vs 1 μL HRP (4 mg/ml)): 100%
T1 shortening relative to HRP-mediated T1 shortening (human neutrophil MPO; 250-650 U MPO): Approximately 70%
relaxivity shortening found in the relaxation experiments (human neutrophil MPO; 1300-2000 U): ~70%
increase in relaxivity of polymer product (human neutrophil MPO; equivalent amount of MPO, clinical imaging strength): 1.7 times
enhancement at 50 minutes after injection (endogenous mouse MPO): still significant enhancement
Compound: CC(C(=O)NCC(=O)NCCc1c[nH]c2ccc(O)cc12)N1CCN(CC(=O)[O-])CCN(CC(=O)[O-])CCN(CC(=O)[O-])CC1.[Gd+3] (stereo not shown) [5-HT-DOTA(Gd), Glycylmethyl DOTA(Gd) 5-Hydroxytryptamide]
